Earlier results, collected in patent US20250313903A1, “NEOANTIGEN IMMUNOTHERAPY” (Gradalis, Inc., priority 2023, published 2025).
Like-named read-outs stand apart in the source and are kept apart here.

Tests used:
[1] = tested on: primary advanced or recurrent dMMR or MSI-H endometrial cancer; settings: dostarlimab-gxly vs. placebo + carboplatin-paclitaxel
[2] = in vivo
[3] = tested on: persistent/recurrent cervical cancer; settings: in vivo
[4] = tested on: advanced metastatic non-small cell lung cancer (NSCLC); settings: one patient, EGFR exon 19 deletion; ongoing greater than 1 year
[5] = tested on: advanced renal cell cancer; settings: in vivo
[6] = tested on: relapsed/refractory metastatic squamous cell cancer of head and neck; settings: second-line
[7] = tested on: non-small cell lung cancer (NSCLC); settings: progressed after platinum-doublet chemotherapy
MSI-H/dMMR tumors = settings: in vivo
[8] = tested on: lymph-node positive or metastatic melanoma after complete resection; settings: adjuvant
[9] = tested on: metastatic melanoma progressed after anti-CTLA-4 therapy; settings: in vivo
[10] = tested on: persistent/recurrent cervical cancer; settings: in vivo; remark: listed apart in the source
metastatic melanoma = settings: previously untreated, wild-type BRAF (CheckMate-067 and CheckMate-069)
[11] = tested on: small-cell lung cancer (SCLC)

## Dostarlimab-gxly: anti-PD-1 checkpoint inhibitor
[1]
  median PFS: Median PFS: 30.3 months

## bevacizumab: VEGF inhibitor
Ovarian cancer; BRCA-m and HRD pattern disease
  survival: 62.6 months
Ovarian cancer; patients with HRP tumors
  survival: 43.4 months
[2]
  patients developing Grade 3/4 product related adverse events: over 65%

## Nivolumab: fully humanized IgG4 antibody targeting PD-1
[3]
  ORR: ORR: 26.3%
  median OS: Median OS: 21.9 months
[4]
  response (in words): durable partial response
[5]
  OS: 25.0 months
[6]
  OS: 7.5 months
[7]
  ORR: 19-20%
  median OS: 9.2-12.2 months
  median PFS: 2.3-3.5 months
MSI-H/dMMR tumors
  ORR: 31%
[8]
  12-month RFS: 70.5%
[9]
  response rate: 32%
[10]
  6-months OS: 6-months OS: 78%
  6-months PFS: 6-months PFS: 16%;
  median duration of SD: SD: 5.7 months
Metastatic melanoma
  response rate: 40%
[11]; in vivo
  24-months OS rate: 17.9%
  median OS: 4.7 months
[11]; progressed on platinum and at least one other line
  response rate: 11.6%
